Measured values as given in patent US20250011352A1, “SOLID FORMS” (priority 2023, published 2025).
Structures can show the parent of a compound that is named as a salt.

Experiment: Dynamic Vapor Sorption (DVS) hygroscopicity
Type: physicochemical
Conditions: from 0 to 90% RH at 25° C.
Protocol: Dynamic Vapor Sorption (DVS) was used to study hygroscopicity on Model Q5000 SA (TA Instruments, New Castle, DE). A sample (1-10 mg) was placed in an aluminum pan and loaded on the sample side of the twin pan balance. The water sorption and desorption were studied as a function of relative humidity (RH) at 25° C. in 10% RH increments from 0% RH to 90% RH and then back to 0%. […] Data analysis was performed using Universal Analysis 2000 Version 4.7A (TA Instruments, New Castle, DE).
In the case of `Cc1cc(CC(=O)O)c(C(C)(C)CC(=O)N(c2nn(CC(F)(F)F)c3c(-c4ccc(C#CC(C)(C)S(C)(=O)=O)nc4[C@H](Cc4cc(F)cc(F)c4)NC(=O)Cn4nc(C(F)(F)F)c5c4C(F)(F)[C@@H]4C[C@H]54)ccc(Cl)c23)S(C)(=O)=O)c(OP(=O)(O)O)c1` [Compound 1 succinate], the “water uptake (DVS)” value is reported as “about 1.7%”. In the case of `Cc1cc(CC(=O)O)c(C(C)(C)CC(=O)N(c2nn(CC(F)(F)F)c3c(-c4ccc(C#CC(C)(C)S(C)(=O)=O)nc4[C@H](Cc4cc(F)cc(F)c4)NC(=O)Cn4nc(C(F)(F)F)c5c4C(F)(F)[C@@H]4C[C@H]54)ccc(Cl)c23)S(C)(=O)=O)c(OP(=O)(O)O)c1` [Compound 1, crystalline Form II], the “water uptake (DVS)” value is reported as “about 1%”. For `Cc1cc(CC(=O)OC(C)(C)C)c(C(C)(C)CC(=O)N(c2nn(CC(F)(F)F)c3c(-c4ccc(C#CC(C)(C)S(C)(=O)=O)nc4[C@H](Cc4cc(F)cc(F)c4)NC(=O)Cn4nc(C(F)(F)F)c5c4C(F)(F)[C@@H]4C[C@H]54)ccc(Cl)c23)S(C)(=O)=O)c(OP(=O)(OC(C)(C)C)OC(C)(C)C)c1` [Compound 2, crystalline Form I], the “water uptake (DVS)” value was “about 2.7%”. With `Cc1cc(CC(=O)O)c(C(C)(C)CC(=O)N(c2nn(CC(F)(F)F)c3c(-c4ccc(C#CC(C)(C)S(C)(=O)=O)nc4[C@H](Cc4cc(F)cc(F)c4)NC(=O)Cn4nc(C(F)(F)F)c5c4C(F)(F)[C@@H]4C[C@H]54)ccc(Cl)c23)S(C)(=O)=O)c(OP(=O)(O)O)c1` [Compound 1, Material A] the “water uptake (DVS)” value was “about 4.6%”. For `Cc1cc(CC(=O)O)c(C(C)(C)CC(=O)N(c2nn(CC(F)(F)F)c3c(-c4ccc(C#CC(C)(C)S(C)(=O)=O)nc4[C@H](Cc4cc(F)cc(F)c4)NC(=O)Cn4nc(C(F)(F)F)c5c4C(F)(F)[C@@H]4C[C@H]54)ccc(Cl)c23)S(C)(=O)=O)c(OP(=O)(O)O)c1` [Compound 1, crystalline Form I], the “water uptake (DVS)” value was “about 4%”. With `Cc1cc(CC(=O)O)c(C(C)(C)CC(=O)N(c2nn(CC(F)(F)F)c3c(-c4ccc(C#CC(C)(C)S(C)(=O)=O)nc4[C@H](Cc4cc(F)cc(F)c4)NC(=O)Cn4nc(C(F)(F)F)c5c4C(F)(F)[C@@H]4C[C@H]54)ccc(Cl)c23)S(C)(=O)=O)c(OP(=O)(O)O)c1` [Compound 1, crystalline Form III] the “water uptake (DVS)” value was “about 1.6%”. In the case of `Cc1cc(CC(=O)O)c(C(C)(C)CC(=O)N(c2nn(CC(F)(F)F)c3c(-c4ccc(C#CC(C)(C)S(C)(=O)=O)nc4[C@H](Cc4cc(F)cc(F)c4)NC(=O)Cn4nc(C(F)(F)F)c5c4C(F)(F)[C@@H]4C[C@H]54)ccc(Cl)c23)S(C)(=O)=O)c(OP(=O)(O)O)c1` [Compound 1 maleate], the “water uptake (DVS)” value is reported as “about 2.5%”.

Experiment: Atropisomer interconversion detected by 19F-NMR in deuterated DMSO
Type: physicochemical
Conditions: deuterated DMSO solution, deuterated DMSO at 25° C.; read-out: half-life of conversion from the major to the minor atropisomer for the biaryl rotation (converted)
Protocol: Compound 1 has two restricted rotational axes, resulting in 4 atropisomers (see FIG. 1) that may be detected by ^19F-NMR.
^19F Nuclear Magnetic Resonance spectra were collected on a Varian 400-MR 400 MHz instrument with 7620AS sample changer. Some of the parameters were adjusted as follows: number of scans: 1; spin: 0 (off); steady state scans: 0 (off). Samples were prepared as a solution of 20 mg in 0.75 mL of dimethyl sulfoxide-d6. The time from solvent addition to end of data acquisition should be ≤5 minutes. Off-line analysis was conducted using MNova software.
With `Cc1cc(CC(=O)O)c(C(C)(C)CC(=O)N(c2nn(CC(F)(F)F)c3c(-c4ccc(C#CC(C)(C)S(C)(=O)=O)nc4[C@H](Cc4cc(F)cc(F)c4)NC(=O)Cn4nc(C(F)(F)F)c5c4C(F)(F)[C@@H]4C[C@H]54)ccc(Cl)c23)S(C)(=O)=O)c(OP(=O)(O)O)c1` [Compound 1, 2-(2-(4-(N-(4-chloro-7-(2-((S)-1-(2-((3bS,4aR)-5,5-difluoro-3-(trifluoromethyl)-3b,4,4a,5-tetrahydro-1H-cyclopropa[3,4]cyclopenta[1,2-c]pyrazol-1-yl)acetamido)-2-(3,5-difluorophenyl)ethyl)-6-(3-methyl-3-(methylsulfonyl)but-1-yn-1-yl)pyridin-3-yl)-1-(2,2,2-trifluoroethyl)-1H-indazol-3-yl)methylsulfonamido)-2-methyl-4-oxobutan-2-yl)-5-methyl-3-(phosphonooxy)phenyl)acetic acid] the half-life at 26.7 mg/mL was ~4300 min.

Same assay, conditions: deuterated DMSO solution, deuterated DMSO at 25° C.; read-out: half-life of interconversion at the 2nd rotational axis
Work on `Cc1cc(CC(=O)O)c(C(C)(C)CC(=O)N(c2nn(CC(F)(F)F)c3c(-c4ccc(C#CC(C)(C)S(C)(=O)=O)nc4[C@H](Cc4cc(F)cc(F)c4)NC(=O)Cn4nc(C(F)(F)F)c5c4C(F)(F)[C@@H]4C[C@H]54)ccc(Cl)c23)S(C)(=O)=O)c(OP(=O)(O)O)c1` [Compound 1, 2-(2-(4-(N-(4-chloro-7-(2-((S)-1-(2-((3bS,4aR)-5,5-difluoro-3-(trifluoromethyl)-3b,4,4a,5-tetrahydro-1H-cyclopropa[3,4]cyclopenta[1,2-c]pyrazol-1-yl)acetamido)-2-(3,5-difluorophenyl)ethyl)-6-(3-methyl-3-(methylsulfonyl)but-1-yn-1-yl)pyridin-3-yl)-1-(2,2,2-trifluoroethyl)-1H-indazol-3-yl)methylsulfonamido)-2-methyl-4-oxobutan-2-yl)-5-methyl-3-(phosphonooxy)phenyl)acetic acid] yielded a half-life at 26.7 mg/mL of ~7 min.
